Holding throughout (test): NCI anticancer screen, dose series, 48 h
Assay [1] has as its system A498 renal.
The subject of assay [2] is A549 NSCLC.
In assay [3] the test system is M14 melanoma.
The subject of assay [4] is MCF7 breast.
Assay [5] relates to PC-3 prostate.
Assay [6] relates to SF-539 CNS.
For assay [7], the system named is SK-MEL-5 melanoma.
Assay [8] deals with SNB-19 CNS.
For assay [9], the system named is TK-10 renal.
Assay [10] has as its system U251 CNS.

Where “and” joins values, the source holds several entries; their conditions need not be identical. Equal entries are not always repeated.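 All cell lines were grown in 96-well plates and treated with compound for 48 hours. GI50: concentration for 50% inhibition of growth. At the TGI there is no net growth.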

Consider `Nc1nc(Cl)cc(NCC2(CO)CCC(Cc3ccccc3)C2)n1` (configuration not stated), for which the TGI was greater than 65.8 µM in [1]; greater than 100 µM in assay [2]; 46.6 µM in assay [3]; 71 µM in [4]; greater than 96.1 µM in assay [5]; greater than 100 µM in assay [6]. Also, the TGI in [7] was 15.6 µM; in assay [8] it was greater than 100 µM; in assay [9], greater than 77 µM; in assay [10], greater than 100 µM.

As for `O=C(CSc1nc(=O)[nH]c2nc[nH]c12)Nc1ccccc1`, the TGI in assay [1] was greater than 100 µM; in assay [2] it was greater than 100 µM; in assay [3], greater than 100 µM; in assay [4], greater than 100 µM; in assay [5], greater than 100 µM; in [6] it was 88.1 µM. For the same compound, the TGI in assay [7], in assay [8], in [9] and in assay [10] was greater than 100 µM each time.

Take `COc1cc(/C=C/C(C)=O)ccc1OP(=O)(O)O`: the TGI in [1], in [2], in assay [3], in assay [4], in assay [5] and in assay [6] was greater than 100 µM throughout. The TGI in assay [7], in [8], in [9] and in [10] was greater than 100 µM each time.

For the compound `COc1ccc(C2SCC(=O)N2c2ccc(-c3ccc(-n4c(-c5ccccc5)nc5ccccc5c4=O)cc3)cc2)cc1` (configuration not stated), the TGI in assay [1], in assay [2], in [3], in [4], in [5] and in assay [6] was greater than 100 µM in each case. For the same compound, the TGI in assay [7], in assay [8], in [9] and in [10] was greater than 100 µM each time.

On to `O=C1OC(c2ccc(O)c(Cl)c2)(c2ccc(O)c(Cl)c2)c2ccc(Br)c3cccc1c23` (tested in a mixture with another compound), for which the TGI in [1] turned out to be 31.7 µM; in [2] it was 38.9 µM; in assay [3] it was 49.6 µM; in assay [4], 30.6 µM; in assay [5], 28.8 µM; in assay [6] it was 32.4 µM. Besides, the TGI came to 31.3 µM in assay [7], 44.4 µM in assay [8], 37 µM in assay [9] and 38.2 µM in assay [10].

Consider `COc1cc([C@@H]2c3cc4c(cc3[C@@H](NCCNCCO)[C@H]3COC(=O)[C@H]23)OCO4)cc(OC)c1O`, for which the TGI was 19.9 µM in [1]; greater than 100 µM in [2]; 28.1 µM and 20.2 µM in [3]; greater than 36.7 µM in [4]; greater than 100 µM in [5]; 3.13 µM and 1.04 µM in [6]. The TGI in assay [7] is 5.14 µM and 6.05 µM; in assay [8], 19.2 µM and > 32.2 µM; in [9], 33.8 µM and 39.3 µM; in assay [10], 5.35 µM. Besides, the GI50 is 0.183 µM and 0.0876 µM in assay [4]; 0.702 µM and 0.171 µM in [6].

Regarding `Cc1ccc(/C=C/C(=O)c2c([O-])on[n+]2-c2ccccc2)cc1`, the TGI in [1] worked out at 17.9 µM; in assay [2], 25 µM; in assay [3] it was 5.98 µM; in assay [4], 19 µM; in assay [5] it was 17.2 µM; in [6] it was 12.7 µM. Further, the TGI in assay [7] is greater than 32.5 µM; in assay [8], greater than 33.5 µM; in assay [9], 10.3 µM; in assay [10], 10.7 µM.

Regarding `NC1C/C(=N\O)c2c(I)sc(I)c21` (configuration not stated), the TGI in assay [1] was greater than 58 µM; in [2], 46.4 µM; in [3], 30.9 µM; in [4] it was 36 µM; in [5], 31.6 µM; in assay [6], 20.3 µM. Moreover, the TGI in assay [7] stood at 28.4 µM; in assay [8] it was 39.3 µM; in [9], 31.3 µM; in assay [10], 37.4 µM.

With `CC(=O)Oc1ccc2c(c1)c1c(=O)oc(N(C)C)nc1n2Cc1ccccc1`, the TGI in [1] was greater than 83 µM; in assay [2], greater than 100 µM; in [3] it was greater than 100 µM; in assay [4], greater than 100 µM; in [5], greater than 100 µM; in assay [6], greater than 100 µM. The TGI in assay [7], in assay [8], in [9] and in assay [10] was greater than 100 µM each time.

With `O=C(c1cc(Cl)cc(Cl)c1)N(C(=S)OC12CC3CC(CC(C3)C1)C2)c1ccccc1`, the TGI in assay [1] is greater than 100 µM; in [2] it was greater than 100 µM; in assay [3], 56.7 µM; in assay [4] it was greater than 100 µM; in assay [5] it was greater than 100 µM; in assay [6] it was greater than 100 µM. Also, the TGI in [7], in assay [8], in assay [9] and in assay [10] was greater than 100 µM each time.

Take `COc1cc(N=NN(C)C)c(C(C)c2c3cc(OC)c(OC)cc3cc[n+]2C)cc1OC` (configuration not stated): the TGI is greater than 100 µM in assay [1]; greater than 100 µM in [2]; greater than 100 µM in assay [3]; greater than 100 µM in [4]; greater than 100 µM in assay [5]; 47.3 µM in [6]. Moreover, the TGI was 56.8 µM in assay [7], greater than 100 µM in assay [8], 97.5 µM in assay [9] and greater than 100 µM in assay [10].

For `C=C=C(C)[Si](C)(C)C`, the TGI in [1], in [2], in [3], in assay [4], in [5] and in [6] was greater than 100 µM throughout. Also, the TGI in assay [7], in assay [8], in assay [9] and in [10] was greater than 100 µM in each case.

Take `CC(=O)OCC1OC(n2c(N)c(C#N)c(-c3ccccc3)c(C#N)c2=S)C(OC(C)=O)C(OC(C)=O)C1OC(C)=O` (configuration not stated): the TGI in assay [1], in [2], in assay [3], in [4], in assay [5] and in assay [6] was greater than 100 µM throughout. The TGI is greater than 100 µM in assay [7], greater than 75.4 µM in assay [8], greater than 100 µM in assay [9] and 59.1 µM in assay [10].

For `O=C1c2cc3ccccc3cc2C2(c3ccc(Cl)cc3)N[C@H]3CCCC[C@@H]3N12` (some centres not stated), the TGI in assay [1] was determined as 39.7 µM; in [2] it was 36.3 µM; in [3] it was 8.65 µM; in [4], 84.9 µM; in assay [5] it was 42.6 µM; in [6], 21.8 µM. Further, the TGI was found to be 42.8 µM in assay [7], 27.9 µM in assay [8], 27.3 µM in [9] and 30.1 µM in assay [10].

For `COC(=O)C(CCC1C=CCC1)N=Cc1ccccc1` (configuration not stated), the TGI in assay [1], in [2], in assay [3], in assay [4], in assay [5] and in assay [6] was greater than 100 µM throughout. In addition, the TGI in assay [7], in assay [8], in [9] and in [10] was greater than 100 µM in each case.

As to `O=C(CN1CCN(C(=O)OCc2ccccc2)CCN(CC(=O)N2CCCCC2)CCN(C(=O)OCc2ccccc2)CC1)N1CCCCC1`, the TGI in assay [1] is 47.1 µM; in assay [2] it was greater than 53.5 µM; in assay [3], 25 µM; in [4], 44.6 µM; in [5], 37.3 µM; in assay [6] it was 27.8 µM. Moreover, the TGI in assay [7] is 19.2 µM; in assay [8], greater than 52.5 µM; in [9], 26.5 µM; in assay [10], 34.4 µM.

`Cc1cc2[nH]c3c(C#N)c(-c4ccccc4)c(N=Nc4cccc(C(F)(F)F)c4)c(=O)n3c2cc1C`: the TGI in assay [1], in [2], in assay [3], in assay [4], in [5] and in [6] was greater than 100 µM throughout. Moreover, the TGI in [7] is 51.8 µM; in assay [8], greater than 100 µM; in [9], greater than 100 µM; in assay [10] it was greater than 100 µM.

For the compound `CC1(c2ccc(Cl)cc2)CC(c2ccc(Cl)cc2)=C(C#N)C(=C(C#N)C#N)N1` (configuration not stated), the TGI in assay [1] was 40 µM; in [2], 53.3 µM; in [3], 36.6 µM; in assay [4], 49.8 µM; in [5] it was 31.9 µM; in assay [6], 40.7 µM. Moreover, the TGI in [7] is 27.2 µM; in assay [8] it was 39.6 µM; in [9] it was 32.6 µM; in [10], 29.5 µM.

Take `CCc1n[nH]c(=O)n1N1C(=O)C2CC=CCC2C1=O` (configuration not stated): the TGI in assay [1], in [2], in assay [3], in assay [4], in assay [5] and in assay [6] was greater than 100 µM in each case. For the same compound, the TGI in [7], in assay [8], in assay [9] and in assay [10] was greater than 100 µM each time.

Regarding `O=C(O)CSCC(=O)Nc1ccc2cccc3c2c1CC3`, the TGI in [1], in assay [2], in assay [3], in assay [4], in assay [5] and in assay [6] was greater than 100 µM in each case. The TGI in [7], in assay [8], in assay [9] and in [10] was greater than 100 µM throughout.

Regarding `CC(=O)Nc1ncc(Sc2ccccc2C(=O)O)s1`, the TGI in [1], in assay [2], in assay [3], in assay [4], in assay [5] and in assay [6] was greater than 100 µM in each case. For the same compound, the TGI in assay [7], in [8], in assay [9] and in assay [10] was greater than 100 µM throughout.
